US11447498B2, “Fused tetracyclic compounds and uses thereof in medicine” (SUNSHINE LAKE PHARMA CO., LTD., priority 2018, dated 2022)

What was measured:
HBV DNA replication = experiment: Inhibition experiment on HBV virus replication (HepG 2,2,15 cells, supernatant HBV DNA by qPCR); type: cell-based; details: Hepatitis B virus, HepG2.2.15, 10 days treatment, supernatant HBV DNA on day 11
Text: (§1) The chromosomal integration of HepG2,2,15 cells (SELLS, PNAS, 1987 and SELLS, JV, 1988) has a complete HBV genome and stably expresses viral RNA and viral proteins. HepG2,2,15 cells are capable of secreting mature hepatitis B virus particles and HBsAg into the culture medium. Virus particles DNA and HBsAg secreted by HepG 2,2,15 cells can be quantified by qPCR and ELISA, and the effects of compounds on viral replication and HBsAg secretion can be detected.
(§2) HepG 2,2,15 cells were inoculated with 8,000 per cell to 96-well cell culture plates in duplicate, and were cultured for 3 days until the cells grew to full-hole. Cells were treated with 4-fold serial dilutions of compounds for 10 days, and were given once every other day. The final concentration of DMSO in all pores was 0.5% and DMSO was used as a drug-free control. The supernatant was collected for quantitative detection of HBV DNA on day 11.
Viral genomic DNA was detected by qPCR method, and HBV primers were as follows: […]
The SYBR Premix Ex Taq D-Takara DRR081S kit was used, and 1 μL of cell culture supernatant was used as a template. A standard curve was made using a plasmid containing the HBV genome, and the viral copy number was calculated using the standard curve. Concentration-virus copy number was processed using Graphpad Prism 5 software, and IC50 of compounds inhibiting virus replication was calculated by four-parameter nonlinear regression model.

HBsAg secretion = experiment: Inhibition experiment on HBsAg secretion (HepG 2,2,15 cells, ELISA); type: cell-based; details: Hepatitis B virus, HepG2.2.15, read-out: HBsAg IC50
Text: as §1
as §2, with “HBsAg” for “HBV DNA”
The level of HBsAg secreted by the cells after treatment of the compound was detected by ELISA method, and the method used a hepatitis B surface antigen diagnostic kit (Shanghai Kehua Biotech Co., Ltd. S10910113). 25 μL of the supernatant to be assayed (PBS was diluted to 75 μL) was added to per well in the ELISA plate, and the kit positive control and negative control were set. The ELIS A plate was blocked with a cover paper and incubated at 37° C. for 60 minutes. The ELISA plate was taken out, and the cover paper was teared off, and 50 μL of enzyme conjugate was added to each well. The ELISA plate was oscillated on the shaker for 10 seconds, blocked with a cover paper and incubated at 37° C. for 30 minutes. The ELISA plate was taken out, the cover paper was teared off, and the ELISA plate was washed 5 times: each time the liquid in the hole was discarded, and the washing liquid was filled into the holes, left to stand for 60 seconds, dried, and the liquid residue was patted to dry on the absorbent paper. A freshly prepared mixture of Developer A and Developer B was added to all wells immediately after washing: 100 μL per well. The ELISA plate was oscillated on the shaker for 10 seconds, blocked with a cover paper and incubated at 37° C. for 30 minutes. 50 μL of stop solution was added to all wells. Absorbance was read on the Envision plate reader at a wavelength of 450 nm.
Concentration-HBsAg OD450 was processed using Graphpad Prism 5 software, and IC50 of compounds inhibiting against HBsAg secretion was calculated by four-parameter nonlinear regression model.

SMILES | IC50 (HBV DNA replication) [nM] | IC50 (HBsAg secretion) [nM]
CC(C)C1Cc2cc(C#CC3CC3)c3c(c2-c2cc(=O)c(C(=O)O)cn21)CCO3 (stereo not shown) [Example 31, 4-(Cyclopropylethynyl)-7-isopropyl-11-oxo-2,6,7,11-tetrahydro-1H-furo [2,3-h]pyrido[2,1-a]isoquinoline-10-carboxylic Acid] | 0.72 | 1.39
COCCCOc1cc2c(c3c1OC(C)(C)C3)-c1cc(=O)c(C(=O)O)cn1C(C(C)C)C2 (stereo not shown) [Example 39, 7-Isopropyl-4-(3-methoxypropoxy)-2,2-dimethyl-11-oxo-2,6,7,11-tetrahydro-1H-furo[2,3h]pyrido[2,1-a]isoquinoline-10-carboxylic Acid] | 1.65 | 0.91
CC(C)C1Cc2cc(-c3cnn(C(F)F)c3)c3c(c2-c2cc(=O)c(C(=O)O)cn21)CCO3 (stereo not shown) [Example 10, 4-(l (Difluoromethyl)-1H-pyrazol-4-yl)-7-isopropyl-11-oxo-2,6,7,11-tetrahydro-1H-furo[2,3-h]pyrido[2,1-a]isoquinoline-10-carboxylic Acid] | 0.98 | 2.34
CC(C)C1Cc2cc(OCCC(F)(F)F)c3c(c2-c2cc(=O)c(C(=O)O)cn21)CCO3 (stereo not shown) [Example 7, 7-Isopropyl-11-oxo-4-(3,3,3-trifluoropropoxy)-2,6,7,11-tetrahydro-1H-furo [2,3-h]pyrido[2,1-a]isoquinoline-10-carboxylic Acid] | 1.87 | 
CC(C)C1Cc2cc(OCCc3ccccc3)c3c(c2-c2cc(=O)c(C(=O)O)cn21)CCO3 (stereo not shown) [Example 6, 7-Isopropyl-11-oxo-4-phenylethoxy-2,6,7,11-tetrahydro-1H-furo[2,3-h]pyrido [2,1-a]isoquinoline-10-carboxylic Acid] | 0.86 | 1.92
CC(C)C1Cc2cc(OCCOC3CC3)c3c(c2-c2cc(=O)c(C(=O)O)cn21)CCO3 (stereo not shown) [Example 4, 4-(2-Cyclopropoxyethoxy)-7-isopropyl-11-oxo-2,6,7,11-tetrahydro-1H-furo [2,3-h]pyrido[2,1-a]isoquinoline-10-carboxylic Acid] | 3.84 | 
CC(C)C1Cc2cc(-c3cncnc3)c3c(c2-c2cc(=O)c(C(=O)O)cn21)CCO3 (stereo not shown) [Example 30, 7-Isopropyl-11-oxo-4-(pyrimidin-5-yl)-2,6,7,11-tetrahydro-1H-furo[2,3-h]pyrido[2,1-a]isoquinoline-10-carboxylic Acid] | 1.95 | 5.3
O=C(O)c1cn2c(cc1=O)-c1c(cc(OCCC3CC3)c3c1CCO3)CN2c1nccs1 [Example 47, 4-(2-Cyclopropylethoxy)-11-oxo-7-(thiazol-2-yl)-2,6,7,11-tetrahydro-1H-furo [2,3-h]pyrido[2,1-a]phthalazine-10-carboxylic Acid] | 3.31 | 
CC(C)n1cc(-c2cc3c(c4c2OCC4)-c2cc(=O)c(C(=O)O)cn2N2C3CCC2(C)C)cn1 (stereo not shown) [Example 14, 5-(1-Isopropyl-1H-pyrazol-4-yl)-1,1-dimethyl-10-oxo-2,3,3a,7,8,10-hexahydro-1H-furo[3,2-f]pyrido[1,2-c]pyrrolo[2,1-a]phthalazine-11-carboxylic Acid] | < 0.24 | 0.38
CC(C)C1Cc2cc(-c3cnn(C(F)F)c3)c3c(c2-c2cc(=O)c(C(=O)O)cn21)CC(C)(C)O3 (stereo not shown) [Example 41, 4-(1-(Difluoromethyl)-1H-pyrazol-4-yl)-7-isopropyl-2,2-dimethyl-11-oxo-2,6,7,11-tetrahydro-1H-furo[2,3-h]pyrido[2,1-a]isoquinoline-10-carboxylic Acid] | 2.09 | 0.54
CC(C)C1Cc2cc(-c3cnn(C4COC4)c3)c3c(c2-c2cc(=O)c(C(=O)O)cn21)CCO3 (stereo not shown) [Example 35, 7-Isopropyl-4-(1-(oxetan-3-yl)-1H-pyrazol-4-yl)-11-oxo-2,6,7,11-tetra hydro-1H-furo[2,3-h]pyrido[2,1-a]isoquinoline-10-carboxylic Acid] | 2.35 | 3.29
CC(C)[C@@H]1Cc2cc(-c3cnn(C(F)F)c3)c3c(c2-c2cc(=O)c(C(=O)O)cn21)CCO3 [Example 10A, 4-(1-(Difluoromethyl)-1H-pyrazol-4-yl)-7-isopropyl-11-oxo-2,6,7,11-tetrahydro-1H-furo[2,3-h]pyrido[2,1-a]isoquinoline-10-carboxylic Acid] |  | 0.54
CC(C)C1Cc2cc(-c3nccs3)c3c(c2-c2cc(=O)c(C(=O)O)cn21)CCO3 (stereo not shown) [Example 8, 7-isopropyl-11-oxo-4-(thiazol-2-yl)-2,6,7,11-tetrahydro-1H-furo[2,3-h]pyrido [2,1-a]isoquinoline-10-carboxylic Acid] | 0.52 | 1.63
CC(C)C1Cc2cc(-c3cnn(C4CCOCC4)c3)c3c(c2-c2cc(=O)c(C(=O)O)cn21)CCO3 (stereo not shown) [Example 34, 7-Isopropyl-11-oxo-4-(1-(tetrahydro-2H-pyran-4-yl)-1H-pyrazol-4-yl)-2,6,7,11-tetrahydro-1H-furo[2,3-h]pyrido[2,1-a]isoquinoline-10-carboxylic Acid] | 3.72 | 2.37
CC(C)C1Cc2cc(-c3ccco3)c3c(c2-c2cc(=O)c(C(=O)O)cn21)CCO3 (stereo not shown) [Example 1, 4-(Furan-2-yl)-7-isopropyl-11-oxo-2,6,7,11-tetrahydro-1H-furo[2,3-h]pyrido[2,1-a]isoquinoline-10-carboxylic Acid] | 2.36 | 4.21
COCCCOc1cc2c(c3c1OCC3)-c1cc(=O)c(C(=O)O)cn1N(C(C)C)C2 [Example 16, 7-Isopropyl-4-(3-methoxypropoxy)-11-oxo-2,6,7,11-tetrahydro-1H-furo[2,3-h]pyrido[2,1-a]phthalazine-10-carboxylic Acid] | 2.49 | 
CC(C)C1Cc2cc(-c3ccncc3)c3c(c2-c2cc(=O)c(C(=O)O)cn21)CCO3 (stereo not shown) [Example 29, 7-Isopropyl-11-oxo-4-(pyridine-4-yl)-2,6,7,11-tetrahydro-1H-furo[2,3-h]pyrido [2,1-a]isoquinoline-10-carboxylic Acid] | 0.97 | 2.64
CC(C)[C@@H]1Cc2cc(OCCC3CC3)c3c(c2-c2cc(=O)c(C(=O)O)cn21)CCO3 [Example 3A, (S)-4-(2-Cyclopropylethoxy)-7-isopropyl-11-oxo-2,6,7,11-tetrahydro-1H-furo [2,3-h]pyrido[2,1-a]isoquinoline-10-carboxylic Acid] |  | 0.76
CC(C)C1Cc2cc(OCCC3CC3)c3c(c2-c2cc(=O)c(C(=O)O)cn21)CC(C)(C)O3 (stereo not shown) [Example 40, 4-(2-Cyclopropylethoxy)-7-isopropyl-2,2-dimethyl-11-oxo-2,6,7,11-tetrahydro-1H-furo[2,3-h]pyrido[2,1-a]isoquinoline-10-carboxylic Acid] | 1.45 | 0.54
CC(C)C1Cc2cc(OCC3CCCC3)c3c(c2-c2cc(=O)c(C(=O)O)cn21)CCO3 (stereo not shown) [Example 22, 4-(Cyclopentylmethoxy)-7-isopropyl-11-oxo-2,6,7,11-tetrahydro-1H-furo[2,3-h]pyrido[2,1-a]isoquinoline-10-carboxylic Acid] | 2.26 | 
CC(C)CCOc1cc2c(c3c1OCC3)-c1cc(=O)c(C(=O)O)cn1C(C(C)C)C2 (stereo not shown) [Example 21, 4-(Isopentyloxy)-7-isopropyl-11-oxo-2,6,7,11-tetrahydro-1H-furo[2,3-h]pyrido [2,1-a]isoquinoline-10-carboxylic Acid] |  | 1.55
